According to patent US20080220103A1, “METHOD FOR TREATING/CONTROLLING/KILLING FUNGI AND BACTERIA ON LIVING ANIMALS” (priority 2005, published 2008):
Converted amounts (≈) assume the structure as drawn. Where two headings read alike, the source gives them in different places.

Key:
E. floccosum = test: MIC, modified CLSI M38A broth dilution; type: cell-based, Epidermophyton floccosum; settings: for MIC Range / MIC50 / MIC90: E. floccosum, n = 6; for MIC / MIC50 / MIC90: Epidermophyton floccosum
Experimental: Minimum Inhibitory Concentration (MIC): Minimum inhibitory concentrations of synthetic and semisynthetic and natural products against dermatophytes were determined using a modification of the Clinical Laboratory Standards Institute (CLSI, formerly National Committee of Clinical Laboratory Standards, NCCLS) M38A standard method for dermatophytes, while MIC of these agents against Candida species were determined using the CLSI M27-A2 methodology. The method used to determine the MIC against bacteria was based on the CLSI document M7-A7.
For dermatophytes, serial dilutions of terbinafine, tolnaftate were prepared in a range of 0.004-2 μg/ml, while for miconazole concentrations ranged between 0.015-8 μg/ml. Finally, for essential oils, the concentrations tested were between 0.03-16 μg/ml. The only exception was tea tree oil where dilutions were prepared in a range of 0.0078-4 μg/ml. The MIC was read at 4 days post inoculation and defined as the lowest concentration of an agent to inhibit 80% of fungal growth as compared to the growth control (Table 2).

T. rubrum = test: Minimum fungicidal concentration (Canton et al.); type: cell-based, Trichophyton rubrum; settings: for MFC: Trichophyton rubrum
Experimental: Minimum fungicidal concentration (MFC): The minimum fungicidal concentrations of various agents were determined using the technique described by Canton et al. (Antimicrob Agents Chemother. 2004 8:2477-82). In that method, fungal conidia were collected following growth on potato dextrose agar (PDA) plates and were used to inoculate 96-well plates containing different concentrations of agents. Following incubation at 35° C. for 4 days (for dermatophytes) or 24 hours (for yeast), wells showing no visible growth were cultured to determine the MFC (defined as the lowest concentration of a given agent that kills>99.999% of fungal conidia or spores). The MFC value represents the level of the agent at which spores or conidia were killed.

T. mentagrophytes [1] = test: Pre-treatment insole biopsy disc assay; type: cell-based, Trichophyton mentagrophytes
Description: (§1) Based on the above experiments, our disc biopsy assay employed Dr. Scholl's insole and leather discs as the optimal substrates representing materials used in shoes, and 30% isopropanol as the optimal vehicle to dissolve the agents to be tested in pre-treatment and post-treatment studies. Two types of disc biopsy assays were used to evaluate the ability of different synthetic and natural substances to disinfect shoe material: (a) Pre-treatment assay: where discs were pre-treated with antifungals first and then infected with T. mentagrophytes, and (b) Post-treatment assay: where discs were first infected with T. mentagrophytes, then treated with drugs. These assays reveal the ability of different agents to prevent and treat shoe fungal contamination, respectively. Pre-treatment assays: To evaluate the ability of different agents to prevent fungal contaminations of shoes, PDA plates were prepared on which 10^4 T. mentagrophytes cells were evenly spread. Next, discs from insoles and leather were treated as follows (with either agent or control vehicle): discs were pretreated with a single spray, spraying for 15 second or 30 second. Other discs were immersed in agent or vehicle for 30 min. Following this treatment, discs were air-dried by placing them in a Petri plate for 1 min. These dried discs were then placed (drug side down) on the seeded PDA plates. Plates were then incubated for 4 days at 30° C. Following incubation, fungal growth was recorded. […] Diameter of the clearance zone (CZD) was measured. The relative activity of different agents and control were assessed.

T. mentagrophytes [2] = test: Post-treatment insole biopsy disc assay; type: cell-based, Trichophyton mentagrophytes
Description: (§2) Based on the above experiments, our disc biopsy assay employed Dr. Scholl's insole and leather discs as the optimal substrates representing materials used in shoes, and 30% isopropanol as the optimal vehicle to dissolve the agents to be tested in pre-treatment and post-treatment studies.
(§3) Two types of disc biopsy assays were used to evaluate the ability of different synthetic and natural substances to disinfect shoe material: (a) Pre-treatment assay: where discs were pre-treated with antifungals first and then infected with T. mentagrophytes, and (b) Post-treatment assay: where discs were first infected with T. mentagrophytes, then treated with drugs. These assays reveal the ability of different agents to prevent and treat shoe fungal contamination, respectively.
(§4) Post-treatment assays: To evaluate the ability of various agents to treat infected shoes, PDA plates were prepared on which […] T. mentagrophytes cells were evenly spread on their surface. Next, untreated biopsy discs were placed on these PDA plates and incubated for 4 days at 30° C. Incubating the biopsy discs in this manner allowed the fungi to invade the discs. Infected discs were picked and post-treated with different agents by spraying. Post-treated discs were allowed to air dry and were then placed on fresh, uninoculated PDA plates and incubated for 4 additional days at 30° C. Incubation of the discs under these conditions allows any fungi that are not killed by the sprayed agent to grow. In other words, agents that are effective in the treatment of shoe material will not show any fungal growth around the disc biopsy (FIG. 1C). In contrast, discs treated with ineffective agents will show fungal growth emanating from them (FIG. 1D). Diameter of the growth zone (GZD) was determined as a measure of the activity of the agent tested.

T. mentagrophytes [3] = test: Pre-treatment leather biopsy disc assay; type: cell-based, Trichophyton mentagrophytes
Description: as §1

T. mentagrophytes [4] = test: Post-treatment leather biopsy disc assay; type: cell-based, Trichophyton mentagrophytes
Description: as §2, §3, §4

T. mentagrophytes [5] = test: Scanning electron microscopy of treated discs; type: cell-based, Trichophyton mentagrophytes; settings: for SEM: fungal growth on insole, post-contamination treatment / SEM: fungal growth on insole, pretreatment: insole biopsy disc; for SEM: fungal growth on leather, pretreatment: leather biopsy disc
Experimental: Scanning electron microscopy (SEM) was used to monitor the ability of agents to eradicate fungal growth on shoe insoles or leather biopsy discs. Pre- and post-treated discs were processed for SEM by the method of Chandra et al. One set of discs was used as a control in which no drug pre- or post-treatment was performed. In addition, one set of biopsy discs was used as blank where no fungal cells or drug were added. Following treatment, discs were fixed with 2% glutaraldehyde for 2 h, and then washed with sodium cacodylate buffer (three times for 10 minutes each). The discs were then treated with 1% osmium tetraoxide (for 1 h at 4° C.) followed by a series of washing with sodium cacodylate buffer, followed by a two times washing with distilled water. Next, the discs were treated with 1% tannic acid washed three times with distilled water, and followed by 1% uranyl acetate with two water washings. The samples were then dehydrated through a series of ethanol solutions (range from 25% (vol/vol) ethanol in distilled water to absolute ethanol). Prepared samples were then sputter coated with Au/Pd (60/40) and viewed with Amray 1000B scanning electron microscope.

[6] = T. rubrum strain 1967, read-out: MFC
[7] = T. rubrum strain 2098, read-out: MFC
[8] = T. rubrum strain 2246, read-out: MFC
[9] = T. rubrum strain 8063, read-out: MFC
[10] = T. rubrum strain 8071, read-out: MFC
[11] = T. rubrum strain 8092, read-out: MFC
[12] = T. rubrum, n = 6, read-out: MFC, row MIC50
[13] = T. rubrum, n = 6, read-out: MFC, row MIC90

MIC Range (E. floccosum) | MIC (E. floccosum; E. floccosum strain 1666) | MIC (E. floccosum; E. floccosum strain 1798) | MIC (E. floccosum; E. floccosum strain 1925) | MIC (E. floccosum; E. floccosum strain 1926) | MIC (E. floccosum; E. floccosum strain 1961) | MIC (E. floccosum; E. floccosum strain 2165) | MIC50 (E. floccosum) | MIC90 (E. floccosum) | Structure (SMILES) | MFC range (row MIC Range) (T. rubrum; T. rubrum, n = 6) | MFC (T. rubrum; [6]) | MFC (T. rubrum; [7]) | MFC (T. rubrum; [8]) | MFC (T. rubrum; [9]) | MFC (T. rubrum; [10]) | MFC (T. rubrum; [11]) | MFC (T. rubrum; [12]) | MFC (T. rubrum; [13]) | Insoles Pretreatment (CZD, clearance zone diameter) (T. mentagrophytes [1]; 1% spray in 30% isopropanol) | Insoles Post-contamination Treatment (GZD, growth zone diameter) (T. mentagrophytes [2]; 1% spray in 30% isopropanol) | further results
0.03 to 0.06 µg/mL | 0.06 µg/mL (≈ 0.206 µM) | 0.03 µg/mL (≈ 0.103 µM) | 0.03 µg/mL (≈ 0.103 µM) | 0.06 µg/mL (≈ 0.206 µM) | 0.06 µg/mL (≈ 0.206 µM) | 0.06 µg/mL (≈ 0.206 µM) | 0.06 µg/mL (≈ 0.206 µM) | 0.06 µg/mL (≈ 0.206 µM) | CN(C/C=C/C#CC(C)(C)C)Cc1cccc2ccccc12 [Terbinafine, terbinafine] | 0.03 to 0.125 µg/mL | 0.125 µg/mL (≈ 0.429 µM) | 0.06 µg/mL (≈ 0.206 µM) | 0.06 µg/mL (≈ 0.206 µM) | 0.06 µg/mL (≈ 0.206 µM) | 0.06 µg/mL (≈ 0.206 µM) | 0.03 µg/mL (≈ 0.103 µM) | 0.06 µg/mL (≈ 0.206 µM) | 0.125 µg/mL (≈ 0.429 µM) | 85 mm | 0 mm | Leather Pretreatment (CZD) (T. mentagrophytes [3]; 1% spray in 30% isopropanol): 85 mm; Leather Post-contamination Treatment (GZD) (T. mentagrophytes [4]; 1% spray in 30% isopropanol): 0 mm; SEM: fungal growth on insole, post-contamination treatment (T. mentagrophytes [5]): complete clearance of fungal growth; SEM: fungal growth on insole, pretreatment (T. mentagrophytes [5]): completely eradicated fungal growth; SEM: fungal growth on leather, pretreatment (T. mentagrophytes [5]): completely eradicated fungal growth
0.06 to 0.125 µg/mL | 0.06 µg/mL (≈ 0.195 µM) | 0.06 µg/mL (≈ 0.195 µM) | 0.06 µg/mL (≈ 0.195 µM) | 0.125 µg/mL (≈ 0.407 µM) | 0.125 µg/mL (≈ 0.407 µM) | 0.06 µg/mL (≈ 0.195 µM) | 0.06 µg/mL (≈ 0.195 µM) | 0.125 µg/mL (≈ 0.407 µM) | Cc1cccc(N(C)C(=S)Oc2ccc3ccccc3c2)c1 [Tolnaftate, tolnaftate] | 0.06 to 0.125 µg/mL | 0.06 µg/mL (≈ 0.195 µM) | 0.06 µg/mL (≈ 0.195 µM) | 0.06 µg/mL (≈ 0.195 µM) | 0.06 µg/mL (≈ 0.195 µM) | 0.06 µg/mL (≈ 0.195 µM) | 0.125 µg/mL (≈ 0.407 µM) | 0.06 µg/mL (≈ 0.195 µM) | 0.125 µg/mL (≈ 0.407 µM) | 25 mm | 8 mm | Insoles Pretreatment (CZD, clearance zone diameter) (T. mentagrophytes [1]; 2% spray in 30% isopropanol): 10 mm; Insoles Pretreatment (CZD, clearance zone diameter) (T. mentagrophytes [1]; 2% spray in 30% isopropanol, listed as tolnaftate): 11 mm; preventive activity against dermatophytes infecting shoes (T. mentagrophytes [1]; acetone as vehicle): potent preventive activity; Insoles Post-contamination Treatment (GZD, growth zone diameter) (T. mentagrophytes [2]; 2% spray in 30% isopropanol): 10 mm; fungal regrowth from established contamination (T. mentagrophytes [2]; 4% (w/v) in acetone, insole disc): no fungal regrowth was observed; Leather Pretreatment (CZD) (T. mentagrophytes [3]; 1% spray in 30% isopropanol): 18 mm; Leather Pretreatment (CZD) (T. mentagrophytes [3]; 1% spray in 30% isopropanol, listed as tolnaftate): 16 mm; Leather Pretreatment (CZD) (T. mentagrophytes [3]; 2% spray in 30% isopropanol): 6 mm; Leather Post-contamination Treatment (GZD) (T. mentagrophytes [4]; 1% spray in 30% isopropanol): 11 mm; Leather Post-contamination Treatment (GZD) (T. mentagrophytes [4]; 2% spray in 30% isopropanol): 11 mm; SEM: fungal growth on insole, post-contamination treatment (T. mentagrophytes [5]): minimally effective; SEM: fungal growth on insole, pretreatment (T. mentagrophytes [5]): completely eradicated fungal growth; SEM: fungal growth on leather, pretreatment (T. mentagrophytes [5]): did not completely eradicate dermatophyte growth

Structure (SMILES) | MIC Range (E. floccosum) | MIC (E. floccosum; E. floccosum strain 1666) | MIC (E. floccosum; E. floccosum strain 1798) | MIC (E. floccosum; E. floccosum strain 1925) | MIC (E. floccosum; E. floccosum strain 1926) | MIC (E. floccosum; E. floccosum strain 1961) | MIC (E. floccosum; E. floccosum strain 2165) | MIC50 (E. floccosum) | MIC90 (E. floccosum) | MFC range (row MIC Range) (T. rubrum; T. rubrum, n = 6) | MFC (T. rubrum; [6]) | MFC (T. rubrum; [7]) | MFC (T. rubrum; [8]) | MFC (T. rubrum; [9]) | MFC (T. rubrum; [10]) | MFC (T. rubrum; [11]) | MFC (T. rubrum; [12]) | MFC (T. rubrum; [13]) | Insoles Pretreatment (CZD, clearance zone diameter) (T. mentagrophytes [1]; 1% spray in 30% isopropanol) | Insoles Post-contamination Treatment (GZD, growth zone diameter) (T. mentagrophytes [2]; 1% spray in 30% isopropanol) | further results
Clc1ccc(COC(Cn2ccnc2)c2ccc(Cl)cc2Cl)c(Cl)c1 (stereo not shown) [Miconazole, miconazole] | 0.06 to 0.125 µg/mL | 0.125 µg/mL (≈ 0.3 µM) | 0.125 µg/mL (≈ 0.3 µM) | 0.06 µg/mL (≈ 0.144 µM) | 0.125 µg/mL (≈ 0.3 µM) | 0.125 µg/mL (≈ 0.3 µM) | 0.125 µg/mL (≈ 0.3 µM) | 0.125 µg/mL (≈ 0.3 µM) | 0.125 µg/mL (≈ 0.3 µM) | 1 to 8 µg/mL | 8 µg/mL (≈ 19.2 µM) | 4 µg/mL (≈ 9.61 µM) | 1 µg/mL (≈ 2.4 µM) | 8 µg/mL (≈ 19.2 µM) | 8 µg/mL (≈ 19.2 µM) | 8 µg/mL (≈ 19.2 µM) | 8 µg/mL (≈ 19.2 µM) | 8 µg/mL (≈ 19.2 µM) |  |  | 
